The values that follow come from PubChem BioAssay AID1259411 (Chemical Carcinogenesis Research Information System (CCRIS), 2018).

This data set concerns rodent carcinogenicity bioassays, tumor incidence. Briefly: CCRIS carcinogenicity studies. The gist of the method:
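Archive of carcinogenicity, mutagenicity, tumor promotion and tumor inhibition results drawn from journals, NCI reports and other sources, expert-reviewed; covers 1985-2011 and is no longer updated.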

Each structure is given as a SMILES string. Calls of active or inactive are those of the source. How the calls were made is not given here.

In the case of `C1COCCO1`, the carcinogen call reads like this: (Species: MOUSE, Strain/Sex: B6C3F1/FEMALE, Route: ORAL, Dose: 0, 0.5, 1.0% (V/V) IN DRINKING WATER, Dose: 0, 0.5, 1.0% (V/V) IN DRINKING WATER, Tumor Site: Type of Lesion: LIVER: HEPATOCELLULAR CARCINOMA OR ADENOMA) “active; positive”; (Species: MOUSE, Strain/Sex: B6C3F1/MALE, Route: ORAL, Dose: 0, 0.5, 1.0% (V/V) IN DRINKING WATER, Dose: 0, 0.5, 1.0% (V/V) IN DRINKING WATER, Tumor Site: Type of Lesion: LIVER: HEPATOCELLULAR CARCINOMA OR ADENOMA) “active; positive”; (Species: MOUSE, Strain/Sex: BDF1/FEMALE, Route: ORAL, Dose: 0, 500, 2000, 8000 PPM IN DRINKING WATER FOR 104 WK (STUDY DURATION: 105 WK), Dose: 0, 500, 2000, 8000 PPM IN DRINKING WATER FOR 104 WK (STUDY DURATION: 105 WK), Tumor Site: Type of Lesion: LIVER: HEPATOCELLULAR ADENOMA, HEPATOCELLULAR CARCINOMA) “active; positive”; (Species: MOUSE, Strain/Sex: BDF1/MALE, Route: ORAL, Dose: 0, 500, 2000, 8000 PPM IN DRINKING WATER FOR 104 WK (STUDY DURATION: 105 WK), Dose: 0, 500, 2000, 8000 PPM IN DRINKING WATER FOR 104 WK (STUDY DURATION: 105 WK), Tumor Site: Type of Lesion: LIVER: HEPATOCELLULAR ADENOMA, HEPATOCELLULAR CARCINOMA) “active; positive”; (Species: RAT, Strain/Sex: F344/FEMALE, Route: ORAL, Dose: 0, 200, 1000, 5000 PPM IN DRINKING WATER FOR 104 WK (STUDY DURATION: 105 WK), Dose: 0, 200, 1000, 5000 PPM IN DRINKING WATER FOR 104 WK (STUDY DURATION: 105 WK), Tumor Site: Type of Lesion: NASAL CAVITY: TUMOR, LIVER: HEPATOCELLULAR ADENOMA, HEPATOCELLULAR CARCINOMA, MAMMARY GLAND: TUMOR, Tumor Site: Type of Lesion: NASAL CAVITY: TUMOR, LIVER: HEPATOCELLULAR ADENOMA, HEPATOCELLULAR CARCINOMA, MAMMARY GLAND: TUMOR) “active; positive”; (Species: RAT, Strain/Sex: F344/MALE, Route: ORAL, Dose: 0, 200, 1000, 5000 PPM IN DRINKING WATER FOR 104 WK (STUDY DURATION: 105 WK), Dose: 0, 200, 1000, 5000 PPM IN DRINKING WATER FOR 104 WK (STUDY DURATION: 105 WK), Tumor Site: Type of Lesion: NASAL CAVITY: TUMOR, LIVER: HEPATOCELLULAR ADENOMA, HEPATOCELLULAR CARCINOMA, PERITONEUM: MESOTHELIOMA, SUBCUTIS: FIBROM, Tumor Site: Type of Lesion: NASAL CAVITY: TUMOR, LIVER: HEPATOCELLULAR ADENOMA, HEPATOCELLULAR CARCINOMA, PERITONEUM: MESOTHELIOMA, SUBCUTIS: FIBROM) “active; positive”. Moreover, the carcinogen call was “active; positive” (Species: RAT, Strain/Sex: OSBORNE-MENDEL/FEMALE, Route: ORAL, Dose: 0, 0.5, 1.0% (V/V) IN DRINKING WATER, Dose: 0, 0.5, 1.0% (V/V) IN DRINKING WATER, Tumor Site: Type of Lesion: NASAL TURBINATES: SQUAMOUS CELL CARCINOMA, LIVER: HEPATOCELLULAR ADENOMA); “active; positive” (Species: RAT, Strain/Sex: OSBORNE-MENDEL/MALE, Route: ORAL, Dose: 0, 0.5, 1.0% (V/V) IN DRINKING WATER, Dose: 0, 0.5, 1.0% (V/V) IN DRINKING WATER, Tumor Site: Type of Lesion: NASAL TURBINATES: SQUAMOUS CELL CARCINOMA); “active; positive” (Species: RAT, Strain/Sex: SHERMAN/MALE,FEMALE, Route: ORAL, Dose: 0.01, 0.1, 1.0% IN DRINKING WATER FOR UP TO 716 D, Dose: 0.01, 0.1, 1.0% IN DRINKING WATER FOR UP TO 716 D, Tumor Site: Type of Lesion: LIVER: HEPATOCELLULAR CARCINOMA, CHOLANGIOMA); “active; positive” (Species: RAT, Strain/Sex: SPRAGUE-DAWLEY/MALE, Route: ORAL, Dose: 0.75, 1.0, 1.4, 1.8% IN DRINKING WATER FOR 13 MO, Dose: 0.75, 1.0, 1.4, 1.8% IN DRINKING WATER FOR 13 MO, Tumor Site: Type of Lesion: NASAL CAVITY: SQUAMOUS CELL CARCINOMA, ADENOCARCINOMA, LIVER: HEPATOMA, HEPATOCELLULAR CARCINOMA); “active; positive” (Species: RAT, Strain/Sex: WISTAR/MALE, Route: ORAL, Dose: 1% IN DRINKING WATER FOR 63 WK, Tumor Site: Type of Lesion: LIVER: NEOPLASTIC NODULE, HEPATOCELLULAR CARCINOMA).

Turning to `O.O=C([O-])c1ccccn1.O=C([O-])c1ccccn1.O=C([O-])c1ccccn1.[Cr+3]`, the carcinogen call reads like this: (Species: Mouse, Strain/Sex: B6C3F1 /Female (50/Group), Route: Oral, Dose: 0, 2000, 10,000, 50,000 ppm (average daily doses of 0; 240; 1200; 6100 mg/kg) in diet for 105 wk, Dose: 0, 2000, 10,000, 50,000 ppm (average daily doses of 0; 240; 1200; 6100 mg/kg) in diet for 105 wk) “inactive; negative”; (Species: Mouse, Strain/Sex: B6C3F1/Female (50/Group), Route: Oral, Dose: 0, 2,000, 10,000, 50,000 ppm in diet for 105 wk (Study duration: 105 wk), Dose: 0, 2,000, 10,000, 50,000 ppm in diet for 105 wk (Study duration: 105 wk)) “inactive; negative”; (Species: Mouse, Strain/Sex: B6C3F1/Male (50/Group), Route: Oral, Dose: 0, 2000, 10,000, 50,000 ppm (average daily doses of 0; 250; 1200; 6565 mg/kg) in diet for 105 wk, Dose: 0, 2000, 10,000, 50,000 ppm (average daily doses of 0; 250; 1200; 6565 mg/kg) in diet for 105 wk) “inactive; negative”; (Species: Mouse, Strain/Sex: B6C3F1/Male (50/Group), Route: Oral, Dose: 0, 2,000, 10,000, 50,000 ppm in diet for 105 wk (Study duration: 105 wk), Dose: 0, 2,000, 10,000, 50,000 ppm in diet for 105 wk (Study duration: 105 wk)) “inactive; negative”; (Species: Rat, Strain/Sex: F344/N / Female (50/Group), Route: Oral, Dose: 0, 2000, 10,000, 50,000 ppm (average daily doses of 0; 100; 510; 2630 mg/kg) in diet for 105 wk, Dose: 0, 2000, 10,000, 50,000 ppm (average daily doses of 0; 100; 510; 2630 mg/kg) in diet for 105 wk) “inactive; negative”; (Species: Rat, Strain/Sex: F344/N / Female (50/Group), Route: Oral, Dose: 0, 2,000, 10,000, 50,000 ppm in diet for 105 wk (Study duration: 105 wk), Dose: 0, 2,000, 10,000, 50,000 ppm in diet for 105 wk (Study duration: 105 wk)) “inactive; negative”. Besides, the carcinogen call is, setting by setting: (Species: Rat, Strain/Sex: F344/N / Male (50/Group), Route: Oral, Dose: 0, 2000, 10,000, 50,000 ppm (average daily doses of 0; 90; 460; 2400 mg/kg) in diet for 105 wk, Dose: 0, 2000, 10,000, 50,000 ppm (average daily doses of 0; 90; 460; 2400 mg/kg) in diet for 105 wk, Tumor Site: Type of Lesion: Preputial gland: adenoma (1/50, 1/50, 7/50, 4/50)) “equivocal”; (Species: Rat, Strain/Sex: F344/N / Male (50/Group), Route: Oral, Dose: 0, 2,000, 10,000, 50,000 ppm in diet for 105 wk (Study duration: 105 wk), Dose: 0, 2,000, 10,000, 50,000 ppm in diet for 105 wk (Study duration: 105 wk), Tumor Site: Type of Lesion: Preputial gland: adenoma (1, 1, 7, 4; P</=0.05 at 10,000 ppm only)) “inactive; negative. authors describe as equivocal evidence of carcinogenicity”.

For `O=c1c(O[C@@H]2O[C@H]([C@H](O)CO)[C@H](O)[C@H]2O)c(-c2ccc(O)c(O)c2)oc2cc(O)cc(O)c12`, the carcinogen call (Species: RAT, Strain/Sex: F344 DUCRJ/FEMALE (50/GROUP), Route: ORAL, DIET, Dose: 119.2, 352.8 MG/KG DAILY FOR 104 WK (STUDY DURATION: 104 WK), TEST MATERIAL WAS ENZYMATICALLY MODIFIED, Dose: 119.2, 352.8 MG/KG DAILY FOR 104 WK (STUDY DURATION: 104 WK), TEST MATERIAL WAS ENZYMATICALLY MODIFIED, Tumor Site: Type of Lesion: NONE) was “inactive; negative” and the carcinogen call (Species: RAT, Strain/Sex: F344 DUCRJ/MALE (50/GROUP), Route: ORAL, DIET, Dose: 142.5, 431.1 MG/KG DAILY FOR 104 WK (STUDY DURATION: 104 WK), TEST MATERIAL WAS ENZYMATICALLY MODIFIED, Dose: 142.5, 431.1 MG/KG DAILY FOR 104 WK (STUDY DURATION: 104 WK), TEST MATERIAL WAS ENZYMATICALLY MODIFIED, Tumor Site: Type of Lesion: NONE) was “inactive; negative”.
